The target of series [1] is T1, human CYP2D6 (Homo sapiens, UniProt P10635). In words: biochemical. To be noted: for AC50: CYP2D6 AC50 (half-maximal activity concentration).
Series [2] concerns the target T2, human CYP2C19 (Homo sapiens, UniProt P33261). In words: biochemical.
For series [3], the target named is T3, human CYP2C9 (Homo sapiens, UniProt P11712). In words: biochemical. To be noted: for AC50: CYP2C9 AC50 (half-maximal activity concentration).
Series [4] concerns the target T3, human CYP2C9. To be noted: human.
Series [5] concerns the target T1, human CYP2D6. To be noted: human.
The target of series [6] is T2, human CYP2C19. To be noted: human.
Series [7] concerns the target T4, human CYP1A2 (Homo sapiens, UniProt P05177).
T4 sequence (P05177 1-516): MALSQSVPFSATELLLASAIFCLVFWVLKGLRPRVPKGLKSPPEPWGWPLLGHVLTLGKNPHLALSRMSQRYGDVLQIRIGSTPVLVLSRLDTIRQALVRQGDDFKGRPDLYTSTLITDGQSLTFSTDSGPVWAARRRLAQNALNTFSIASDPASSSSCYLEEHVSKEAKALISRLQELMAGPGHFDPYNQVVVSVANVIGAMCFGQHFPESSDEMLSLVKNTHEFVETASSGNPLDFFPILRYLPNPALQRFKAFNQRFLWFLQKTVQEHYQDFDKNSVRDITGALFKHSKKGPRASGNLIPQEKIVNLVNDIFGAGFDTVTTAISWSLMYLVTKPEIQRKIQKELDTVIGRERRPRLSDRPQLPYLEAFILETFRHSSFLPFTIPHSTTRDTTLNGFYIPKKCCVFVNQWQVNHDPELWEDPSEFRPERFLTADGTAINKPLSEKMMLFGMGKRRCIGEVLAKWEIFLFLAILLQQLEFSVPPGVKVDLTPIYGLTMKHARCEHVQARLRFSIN
Nature of the series: biochemical.

Setting [8] is: CYP2D6 IC50 (half-maximal inhibitory concentration).
The mark [9] stands for this setting: CYP2C19 IC50 (half-maximal inhibitory concentration).
Setting [10] is: CYP2C9 IC50 (half-maximal inhibitory concentration).

Where a name gives a salt, the structure may show the parent alone. Read-outs that look alike come from different tables or passages of the source.

T1 sequence (P10635 whole entry): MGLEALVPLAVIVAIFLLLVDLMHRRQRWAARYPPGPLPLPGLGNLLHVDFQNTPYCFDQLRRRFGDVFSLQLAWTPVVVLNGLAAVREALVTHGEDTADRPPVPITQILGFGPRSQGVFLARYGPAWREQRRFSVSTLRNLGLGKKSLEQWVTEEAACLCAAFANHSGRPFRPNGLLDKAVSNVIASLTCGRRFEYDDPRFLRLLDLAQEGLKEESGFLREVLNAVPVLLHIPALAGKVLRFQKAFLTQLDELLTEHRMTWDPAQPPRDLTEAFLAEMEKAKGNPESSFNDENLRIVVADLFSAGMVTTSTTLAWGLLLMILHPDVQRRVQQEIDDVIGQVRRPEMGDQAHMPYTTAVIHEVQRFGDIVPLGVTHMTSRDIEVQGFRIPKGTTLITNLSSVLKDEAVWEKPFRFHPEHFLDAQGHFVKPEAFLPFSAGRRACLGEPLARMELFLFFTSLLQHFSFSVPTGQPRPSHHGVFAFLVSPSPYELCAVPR
T2 sequence (P33261 whole entry): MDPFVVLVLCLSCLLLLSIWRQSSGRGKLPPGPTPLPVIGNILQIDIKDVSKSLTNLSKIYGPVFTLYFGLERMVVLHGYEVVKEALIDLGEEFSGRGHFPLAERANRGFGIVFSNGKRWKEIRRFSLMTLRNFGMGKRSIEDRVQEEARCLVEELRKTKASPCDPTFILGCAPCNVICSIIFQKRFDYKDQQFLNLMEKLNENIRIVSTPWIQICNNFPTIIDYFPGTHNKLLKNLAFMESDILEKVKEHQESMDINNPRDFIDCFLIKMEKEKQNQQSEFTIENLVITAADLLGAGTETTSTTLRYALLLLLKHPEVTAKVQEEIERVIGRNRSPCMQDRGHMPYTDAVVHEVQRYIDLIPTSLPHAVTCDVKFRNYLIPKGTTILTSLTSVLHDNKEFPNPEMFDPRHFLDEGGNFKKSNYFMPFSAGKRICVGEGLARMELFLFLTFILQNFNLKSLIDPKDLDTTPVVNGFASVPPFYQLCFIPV
T3 sequence (P11712 whole entry): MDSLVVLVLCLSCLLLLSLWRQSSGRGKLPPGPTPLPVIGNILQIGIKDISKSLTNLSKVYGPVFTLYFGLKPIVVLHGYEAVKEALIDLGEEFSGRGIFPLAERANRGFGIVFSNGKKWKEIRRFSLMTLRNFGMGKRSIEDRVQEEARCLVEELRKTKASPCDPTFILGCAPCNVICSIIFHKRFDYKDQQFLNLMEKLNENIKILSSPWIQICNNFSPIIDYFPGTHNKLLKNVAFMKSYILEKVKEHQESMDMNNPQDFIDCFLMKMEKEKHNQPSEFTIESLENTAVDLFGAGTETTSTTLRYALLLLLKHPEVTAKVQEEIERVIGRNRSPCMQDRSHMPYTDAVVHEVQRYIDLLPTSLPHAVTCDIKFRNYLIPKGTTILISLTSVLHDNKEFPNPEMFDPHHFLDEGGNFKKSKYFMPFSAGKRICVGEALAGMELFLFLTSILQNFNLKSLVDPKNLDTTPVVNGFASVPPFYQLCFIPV

For the molecule `Cc1cc2c(OCC(CNC(C)(C)C)OC(=O)c3ccccc3)cccc2[nH]1` (stereo not drawn) [Bopindolol], the results for the IC50 in series [1], in series [2] and in series [3] were 0.64 ± 0.04 µM, 23.9 ± 13 µM and 6.95 ± 0.8 µM, respectively.

In the case of `Clc1ccc(C(c2ccccc2Cl)C(Cl)Cl)cc1` (stereo not drawn) [Mitotane], in series [4], the “CYP2C9 Efficacy (in parenthesis)” value is listed as 10.57 ± 0.69 (-106 ± 4) %. The AC50 (in general, the concentration at which the activity in the assay is half-maximal) came to 32.4 µM in series [1], 0.82 µM in series [2] (CYP2C19 AC50 (half-maximal activity concentration)) and 10.6 µM in series [3]. Also, the IC50 (usually the concentration that gives 50% inhibition) is 32.4 µM in series [1] (setting [8]), 0.82 µM in series [2] (setting [9]) and 10.6 µM in series [3] (setting [10]). Moreover, the “CYP2D6 Efficacy (in parenthesis)” value in series [5] is 32.45 ± 5.84 (-38 ± 9) %. Further, in series [6], the “CYP2C19 Efficacy (in parenthesis)” value is 0.82 ± 0.15 (-131 ± 13) %.

Turning to `COc1ccc2cc3[n+](cc2c1OC)CCc1cc2c(cc1-3)OCO2` [Berberine chloride], the figures for the IC50 in series [1] (setting [8]), in series [2] (setting [9]) and in series [7] (CYP1A2 IC50 (half-maximal inhibitory concentration)) were 0.52 µM, 26.9 µM and 23.6 µM, respectively.

As for `CN1CCN(CCCN2c3ccccc3Sc3ccc(S(=O)(=O)N(C)C)cc32)CC1` [Thioproperazine dimethanesulfonate], the IC50 in series [1] was found to be 15.5 µM; in series [7], 24.1 ± 9.56 µM; in series [3] it was 17.4 µM.

Take `Nc1ccc(S(=O)(=O)Nc2nccs2)cc1` [Sulfathiazole]: the AC50 in series [1] is 56.1 µM; in series [7] (CYP1A2 AC50 (half-maximal activity concentration)), 33.2 µM; in series [3] it was 13.3 µM.

As to `O=C(Nc1ccccc1)OCC(CN1CCCCC1)OC(=O)Nc1ccccc1` (stereo not drawn) [Diperodon hydrochloride], the results for the IC50 in series [1] (setting [8]), in series [2] (setting [9]) and in series [3] (setting [10]) were 0.36 µM, 7.12 µM and 20.8 µM, respectively.

In the case of `OC(CCN1CCCCC1)(c1ccccc1)C1CCCCC1` (stereo not drawn) [Trihexyphenidyl hydrochloride], the IC50 worked out at 0.76 µM in series [1] (setting [8]) and 17.2 µM in series [2] (setting [9]).

Turning to `CCCCOc1ccc(C(=O)CCN2CCCCC2)cc1` [Dyclonine hydrochloride], the AC50 in series [1] was found to be 6.92 µM; in series [3], 14.5 µM.

For `O=C(CN1CCN(Cc2ccc3c(c2)OCO3)CC1)N1c2ccccc2Sc2ccccc21` [Fenoverine], the IC50 in series [1] (setting [8]) came to 0.46 µM; in series [2] (setting [9]), 40.7 µM; in series [3] (setting [10]), 18.9 µM.

Take `CN1CCCN=C1COC(=O)C(O)(c1ccccc1)C1CCCCC1` (stereo not drawn) [Oxyphencyclimine hydrochloride]: the IC50 in series [1] stood at 0.92 µM; in series [7] it was 14.6 µM.

As for `COc1ccc2c(c1OC)C(=O)O[C@@H]2[C@H]1c2c(cc3c(c2OC)OCO3)CCN1C` [Noscapine], the IC50 in series [1] (setting [8]) was determined as 12.9 µM; in series [2] (setting [9]), 1.38 µM; in series [3] (setting [10]), 0.84 µM.

Take `Cc1c(O)cccc1C(=O)N[C@@H](CSc1ccccc1)[C@H](O)CN1C[C@H]2CCCC[C@H]2C[C@H]1C(=O)NC(C)(C)C` [Nelfinavir mesylate]: the figures for the IC50 in series [1] (setting [8]), in series [2] (setting [9]) and in series [3] (setting [10]) were 14.4 µM, 42.1 µM and 19.1 µM, respectively.

As for `CCCCC(=O)O[C@]1(C(=O)CO)[C@@H](C)C[C@H]2[C@@H]3CCC4=CC(=O)C=C[C@]4(C)[C@@]3(F)[C@@H](O)C[C@@]21C` [Betamethasone valerate], the IC50 in series [1] (setting [8]) came out at 39.1 µM; in series [2] (setting [9]), 31.1 µM; in series [3] (setting [10]), 17.4 µM.

In the case of `C=CCOC(Cn1ccnc1)c1ccc(Cl)cc1Cl` (stereo not drawn) [imazalil], the IC50 in series [1] (setting [8]) was 6.12 µM; in series [2] (setting [9]) it was 0.15 µM; in series [3] (setting [10]) it was 0.77 µM.

In the case of `CC(Cc1ccccc1)NCCn1cnc2c1c(=O)n(C)c(=O)n2C` (stereo not drawn) [Fenethylline hydrochloride], the IC50 turned out to be 5.37 µM in series [1] (setting [8]) and 85.1 µM in series [2] (setting [9]).

`O=C(O)c1nn(Cc2ccc(Cl)cc2Cl)c2ccccc12` [Lonidamine]: the results for the AC50 in series [1] and in series [3] were 66 µM and 68 µM, respectively.

`O=C(OCC1(COC(=O)c2cccnc2)CCCC(COC(=O)c2cccnc2)(COC(=O)c2cccnc2)C1O)c1cccnc1` [Nicomolol]: the IC50 is 22.4 µM in series [1] (setting [8]), 23.3 µM in series [2] (setting [9]) and 8.67 µM in series [3] (setting [10]).

As for `CC1CCCC(C)N1CCCC(O)(c1ccccc1)c1ccccn1` (stereo not drawn) [Pirmenol], in series [1] (setting [8]), it took 0.92 µM to reach half-maximal inhibition (IC50).

Take `CCN(CC)CCN1C(=O)CN=C(c2ccccc2F)c2cc(Cl)ccc21` [Flurazepam]: in series [1] (setting [8]), the IC50 is 15.6 µM.

For the origin of these results see publication PMC12155096 (International Journal of Molecular Sciences, 2025).
